What was measured:
human eIF4E1a = target: T1, human eIF4E1a (Homo sapiens, UniProt P06730); assay: Fluorescence quenching titration (FQT) binding assay with eIF4E
T1 construct: made in house; host or cells: E. coli Rosetta 2 (DE3)pLysS
Procedure: The human eIF4E1a protein was expressed without affinity tag in E. coli Rosseta 2 (DE3)pLysS strain (Novagen) under conditions leading to accumulation of the produced protein in inclusion bodies ([48]). The protein was extracted from inclusion bodies with buffer containing 6 M guanidine hydrochloride, refolded by one-step dialysis against 50 mM HEPES/KOH (pH 7.2), 100 mM KCl, 0.5 mM EDTA, 2 mM DTT, and purified by ion exchange chromatography on HiTrap SP HP 5 ml column (GE Healthcare) using salts gradient. Finally, protein was filtered using Ultrafree MC-HV Centrifugal PVDF filters with 0.45 μm membrane pore (Millipore) to remove protein aggregates and its concentration was determined spectrophotometrically assuming the theoretical extinction coefficient ϵ280nm = 52 940 L mol^−1cm^−1—calculated from amino acid composition using algorithm on ExPASy Server.
Fluorescence titration measurements were carried out on a LS-55 spectrofluorometer (Perkin Elmer Co., Norwalk, CT, USA) in a quartz semi-micro cuvette (Hellma, Germany) with optical lengths 4 mm and 10 mm for absorption and emission, respectively, which was thermostated at 20.0 ± 0.2 °C. The titrations were performed in 50 mM Hepes/KOH pH 7.2, 100 mM KCl, 0.5 mM EDTA and 1 mM DTT by adding 1 μl aliquots of increasing concentrations of the cap solutions to 1.4 ml of 0.1 μM eIF4E1a solution. The eIF4E1a fluorescence was excited at 280 nm and the fluorescence intensity was monitored at a single wavelength 340 nm. The measured fluorescence intensities were corrected for dilution (<4%) and for the inner filter effect. Association equilibrium constants (Kas) were obtained by fitting the theoretical curve for fluorescence intensity (F) upon total concentration of cap analogs ([L]) to the titration data according to the equation: […]
with the concentration of the cap analogs–eIF4E1a complex [cx] given by:
where Δϕ stands for the difference between the fluorescence efficiencies of the apo- and cap analog bound proteins; ϕlig-free is the fluorescence efficiency of the free cap analog; F(0) is the initial fluorescence, and Pact is the total concentration of the active protein ([49]). The final KAS values were calculated as a weighted average from three independent titrations and represented as the KD values. Numerical least-squares nonlinear regression analysis was performed using ORIGIN 2021 from Microcal Software Inc., USA.
Recognition of the mRNA 5′ cap by translation initiation factor 4E (eIF4E) is considered to be the rate-limiting step for the entire translation process ([63],[64]), therefore we investigated the affinity of novel trinucleotide cap analogs to the canonical human eIF4E1a protein by fluorescence quenching titration (FQT; Table 1 column 1, Figure 3) ([65]). As a reference, we determined the dissociation constant between heIF4E1a and the trinucleotide cap-1 structure m^7GpppAmpG, which was equal to 42 nM and very close to the analogous value previously determined for mouse Δ27NeIF4E (46 nM) ([12]). In the case of all modifications tested, the KD values for cap-heIF4E1a complexes are consistent with the results previously obtained for dinucleotide counterparts and murine eIF4E protein, although the magnitude of the modification effect is generally lower. The most tightly bound tetraphosphate analogs (compounds 10–12) show KD values of 6–7 nM, which means that their affinity is about 6-fold higher compared to the triphosphate counterparts. The affinities decrease upon CH2 or CCl2 modification of the tetraphosphate bridge (compounds 13–16), but they are still 4–5 times higher than for the triphosphate analogs with the same adenosine methylation pattern.

Human Dcp2 = target: T2, Human Dcp2 (Homo sapiens, UniProt Q8IU60); assay: RNA decapping assay with recombinant hDcp2; format: biochemical; conditions: fraction of decapped RNA after 30 min of incubation with hDcp2, 27-nt RNA capped with the analog, 37 °C; triplicates ± SD
T2 construct: made in house; host or cells: E. coli
Procedure: Human Dcp2 was expressed in E. coli and purified as described previously ([52]). Short 27 nt-capped RNAs (24.2 ng) were diluted with decapping buffer (50 mM Tris–HCl pH 8.0, 50 mM NH4Cl, 0.01% NP-40, 1 mM DTT, 5 mM MgCl2 and 2 mM MnCl2; 2.9 μl of freshly prepared 10 × Buffer) and the final volume was adjusted to 29 μl with ultrapure RNase free water. 4.2 ng (5 μl) of the solution was taken out as time zero reference and diluted with 5 μl loading dye (5 M urea, 44% formamide, 20 mM EDTA, 0.03% bromophenol blue, 0.03% xylene cyanol). The remaining RNAs (20 ng/24 μl) were subjected to 10 nM hDcp2 (250 nM, 1 μl) and the mixtures were incubated at 37°C for 1 h. At defined time points (5, 15, 30 and 60 min), 4 ng of RNA (5 μl) were taken out and the reactions were quenched by adding an equal volume of loading dye. RNAs were resolved electrophoretically on denaturing 15% acrylamide:bisacrylamide 19:1/7 M urea/1 × TBE gel, stained with SYBR Gold (Invitrogen) and visualized using a Typhoon FLA 9500 (GE Healthcare). The decapping progress was determined for each time point by densitometry analysis of the gels, as a ratio between the intensity of the band corresponding to capped RNA and the sum of the intensity of bands from capped and uncapped RNAs. The percentages of remaining capped RNA were then plotted as a function of time.
The RNAs used to determine the capping efficiencies were also useful to study the susceptibility of capped RNA to decapping by hDcp2, the catalytic subunit of the major human mRNA decapping complex Dcp1/Dcp2, which releases m^7GDP and 5′-monophosphorylated RNA (in this case the 26-nt pApG-RNA24; Figure 4C). The progress of decapping at different time points (5, 15, 30 and 60 min) was monitored by HR-PAGE followed by densitometric analysis of the gels (Figure 4C, triplicates of gels are shown in Supplementary Figure S2), and the fraction of remaining capped RNA (27-nt) was plotted as a function of time (Figure 4D-G). […] For better visualization, the data of modified capped RNAs were grouped according to the type of modification present at the 5′ end and presented in separate graphs (Figure 4E–G). To quantify the relative susceptibility to hDcp2, we compared the decapping levels at the 30 min time point (Table 1). For RNAs capped with β-S-triphosphate analogs (1–6, Figure 4E, Table 1), we observed a significant difference in susceptibility to hDcp2 between RP and SP isomers, independent of the methylation pattern.

T1 sequence (P06730 whole entry): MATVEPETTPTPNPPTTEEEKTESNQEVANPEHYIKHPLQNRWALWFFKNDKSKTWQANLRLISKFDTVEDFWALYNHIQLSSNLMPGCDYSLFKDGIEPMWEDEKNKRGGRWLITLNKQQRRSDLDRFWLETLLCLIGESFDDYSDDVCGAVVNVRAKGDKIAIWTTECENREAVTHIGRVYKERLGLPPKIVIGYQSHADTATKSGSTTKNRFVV

## CO[C@@H]1[C@H](OP(=O)(O)OC[C@H]2O[C@@H](n3cnc4c(=O)[nH]c(N)nc43)[C@H](O)[C@@H]2O)[C@@H](CSP(=O)([O-])OP(=O)(O)OP(=O)(O)OC[C@H]2O[C@@H](n3c[n+](C)c4c(O)nc(N)nc43)[C@H](O)[C@@H]2O)O[C@H]1n1cnc2c(N)ncnc21 [Compound 8, m^7Gppp^5’SAmpG]
Human eIF4E1a; compared to corresponding triphosphates
  effect of modification on binding affinity for heIF4E1a (in words): virtually no effect on binding affinity
Human eIF4E1a; fluorescence quenching titration, 20 °C, pH 7.2, average of triplicates ± SD, read-out: heIF4E1a KD
  Kd: 48.7 ± 1.2 nM
Human Dcp2
  Susceptibility to hDcp2 (@30 min): 0.64 ± 0.11
